Reference: US10988477B2 (Merck Patent GmbH, priority 2018, dated 2021)
Where a name gives a salt, the structure may show the parent alone.

Tests used:
[1] = biological target: intracellular GCN2 (phosphorylation of the GCN2 substrate eIF2α) (Homo sapiens, UniProt Q9P2K8); experiment: GCN2 cellular inhibition assay (AlphaScreen SureFire P-eIF2α Ser51, borrelidin-treated U2OS cells); format: cell-based; details: compounds of Formula II; biomarker assay, phosphorylated eIF2α Ser51 in borrelidin-treated U2OS cells
Outline: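 U2OS cells, adhered overnight, received compounds in 4-fold serial dilutions from 40 μM final, then 10 μM borrelidin for 1 h at 37 °C. Lysates were read by AlphaScreen for phospho-eIF2α Ser51; percent inhibition was set against borrelidin-only wells.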

GCN2 kinase = GCN2 kinase (Homo sapiens, UniProt Q9P2K8); experiment: GCN2 enzyme inhibition assay (Transcreener ADP2 fluorescence polarization); format: biochemical; details: compounds of Formula II; 280 μM ATP, 4 nM GCN2 kinase
Outline: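 ADP formation read by Transcreener FP after a 1 h, 25 °C kinase reaction containing 280 μM ATP, 200 μM (RS)7 substrate and 4 nM GCN2, pH 7.5 Tris buffer. Compounds (0–8 μM final) were added 10 min before ATP. Percent inhibition gave IC50 and apparent Ki via tight-binding fit.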

Sequence of GCN2 kinase (Q9P2K8 whole entry): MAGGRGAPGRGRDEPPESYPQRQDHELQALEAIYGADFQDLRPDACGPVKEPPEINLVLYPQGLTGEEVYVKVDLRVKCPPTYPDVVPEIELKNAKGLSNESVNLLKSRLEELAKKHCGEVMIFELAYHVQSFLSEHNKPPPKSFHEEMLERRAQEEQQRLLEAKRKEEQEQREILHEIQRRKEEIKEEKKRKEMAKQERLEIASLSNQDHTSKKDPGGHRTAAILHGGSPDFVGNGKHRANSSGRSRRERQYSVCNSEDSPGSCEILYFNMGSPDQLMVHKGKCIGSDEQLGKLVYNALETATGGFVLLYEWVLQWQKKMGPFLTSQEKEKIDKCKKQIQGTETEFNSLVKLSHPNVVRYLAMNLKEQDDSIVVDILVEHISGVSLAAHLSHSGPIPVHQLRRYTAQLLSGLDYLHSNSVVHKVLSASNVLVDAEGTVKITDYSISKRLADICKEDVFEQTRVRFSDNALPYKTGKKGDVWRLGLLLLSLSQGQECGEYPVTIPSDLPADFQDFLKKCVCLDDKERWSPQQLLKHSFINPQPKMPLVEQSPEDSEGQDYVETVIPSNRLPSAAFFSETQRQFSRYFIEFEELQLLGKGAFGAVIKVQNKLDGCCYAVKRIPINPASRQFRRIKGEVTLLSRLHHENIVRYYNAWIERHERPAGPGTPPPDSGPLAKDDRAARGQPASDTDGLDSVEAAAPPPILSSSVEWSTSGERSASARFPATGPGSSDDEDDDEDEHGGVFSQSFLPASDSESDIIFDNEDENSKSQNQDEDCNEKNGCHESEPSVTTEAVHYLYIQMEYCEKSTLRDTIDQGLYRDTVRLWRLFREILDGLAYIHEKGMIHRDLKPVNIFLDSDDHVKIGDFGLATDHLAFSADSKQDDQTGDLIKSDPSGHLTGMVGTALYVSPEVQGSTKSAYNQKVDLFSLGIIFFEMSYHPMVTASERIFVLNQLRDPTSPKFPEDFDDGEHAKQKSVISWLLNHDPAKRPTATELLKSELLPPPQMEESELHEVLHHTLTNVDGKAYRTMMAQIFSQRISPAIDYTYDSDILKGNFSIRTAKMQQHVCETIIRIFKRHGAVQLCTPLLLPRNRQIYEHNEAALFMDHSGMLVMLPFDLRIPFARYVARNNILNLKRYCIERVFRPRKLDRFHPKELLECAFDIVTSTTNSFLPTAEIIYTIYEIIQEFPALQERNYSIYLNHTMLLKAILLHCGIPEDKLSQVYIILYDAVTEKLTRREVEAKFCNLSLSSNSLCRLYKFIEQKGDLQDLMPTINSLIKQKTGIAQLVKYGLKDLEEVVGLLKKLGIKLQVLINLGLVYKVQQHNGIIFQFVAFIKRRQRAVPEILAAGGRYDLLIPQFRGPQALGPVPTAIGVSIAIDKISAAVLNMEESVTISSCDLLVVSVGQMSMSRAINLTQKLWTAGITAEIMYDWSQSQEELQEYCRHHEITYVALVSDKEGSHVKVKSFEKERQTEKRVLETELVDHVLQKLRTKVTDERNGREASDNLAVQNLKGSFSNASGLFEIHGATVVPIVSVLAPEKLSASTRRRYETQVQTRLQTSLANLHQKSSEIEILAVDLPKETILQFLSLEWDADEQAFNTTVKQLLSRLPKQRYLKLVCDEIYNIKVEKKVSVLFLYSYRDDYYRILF
Sequence of intracellular GCN2 (phosphorylation of the GCN2 substrate eIF2α) (Q9P2K8 whole entry): as above

SMILES	IC50 [1]	Ki (GCN2 kinase)
C[C@H]1CN(c2cc(-c3cnc4ccc(C(F)F)nn34)ncn2)C[C@@H](CNS(N)(=O)=O)C1(F)F [II-316, 1-(((3S,5S)-1-(6-(6-(Difluoromethyl)imidazo[1,2-b]pyridazin-3-yl)pyrimidin-4-yl)-4,4-difluoro-5-methylpiperidin-3-yl)methyl)sulfuric diamide]	< 0.5 µM	< 0.01 µM
NS(=O)(=O)CCC1CCCN(c2cc(-c3cnc4ccc(C(F)F)nn34)ncn2)C1 (stereo not shown) [II-317, 2-(1-(6-(6-(Difluoromethyl)imidazo[12-b]pyridazin-3-yl)pyrimidin-4-yl)piperidin-3-yl)ethane-1-sulfonamide]	0.5 to 5 µM	0.01 to 1 µM
NS(=O)(=O)CCC1CN(c2cc(-c3cnc4ccc(C(F)F)nn34)ncn2)CCO1 (stereo not shown) [II-318, 2-(4-(6-(6-(Difluoromethyl)imidazo[1,2-b]pyridazin-3-yl)pyrimidin-4-yl)morpholin-2-yl)ethane-1-sulfonamide]	0.5 to 5 µM	0.01 to 1 µM
CS(=O)(=O)N1CC2OCCN(c3cc(-c4cnc5ccc(C(F)F)nn45)ncn3)C2C1 (stereo not shown) [II-319, 4-(6-(6-(Difluoromethyl)imidazo[1,2-b]pyridazin-3-yl)pyrimidin-4-yl)-6-(methylsulfonyl)octahydropyrrolo[3,4-b][1,4]oxazine]	> 5 µM	0.01 to 1 µM
CS(=O)(=O)N1CC2CCCN(c3cc(-c4cnc5ccc(C(F)F)nn45)ncn3)C2C1 (stereo not shown) [II-320, 6-(Difluoromethyl)-3-(6-(6-(methylsulfonyl)octahydro-1H-pyrrolo[3,4-b]pyridin-1-yl)pyrimidin-4-yl)imidazo[1,2-b]pyridazine]	> 5 µM	0.01 to 1 µM
C[C@H]1CN(c2cc(-c3cnc4ccc(C(C)(F)F)nn34)ncn2)C[C@@H](CNS(C)(=O)=O)C1(F)F [II-321, N-(((3S,5S)-1-(6-(6-(1,1-Difluoroethyl)imidazo[1,2-b]pyridazin-3-yl)pyrimidin-4-yl)-4,4-difluoro-5-methylpiperidin-3-yl)methyl)methanesulfonamide]	> 5 µM	0.01 to 1 µM
CC(F)(F)c1ccc2ncc(-c3cc(N4CCO[C@H](CNS(C)(=O)=O)C4)ncn3)n2n1 [II-322, (S)—N-((4-(6-(6-(1,1-Difluoroethyl)imidazo[1,2-b]pyridazin-3-yl)pyrimidin-4-yl)morpholin-2-yl)methyl)methanesulfonamide]	> 5 µM	0.01 to 1 µM
C[C@H]1CCCCN1c1cc(-c2cnc3ccc(C(F)F)nn23)ncn1 [II-323, (S)-6-(Difluoromethyl)-3-(6-(2-methylpiperidin-1-yl)pyrimidin-4-yl)imidazo[1,2-b]pyridazine]	0.5 to 5 µM	0.01 to 1 µM
C[C@@H]1COCCN1c1cc(-c2cnc3ccc(C(F)F)nn23)ncn1 [II-324, (R)-4-(6-(6-(Difluoromethyl)imidazo[1,2-b]pyridazin-3-yl)pyrimidin-4-yl)-3-methylmorpholine]	> 5 µM	0.01 to 1 µM
C[C@H]1COCCN1c1cc(-c2cnc3ccc(C(F)F)nn23)ncn1 [II-325, (S)-4-(6-(6-(Difluoromethyl)imidazo[1,2-b]pyridazin-3-yl)pyrimidin-4-yl)-3-methylmorpholine]	0.5 to 5 µM	0.01 to 1 µM
FC(F)c1ccc2ncc(-c3cc(N4CCOC(Cn5cncn5)C4)ncn3)n2n1 (stereo not shown) [II-326, 2-((1H-1,2,4-Triazol-1-yl)methyl)-4-(6-(6-(difluoromethyl)imidazo[1,2-b]pyridazin-3-yl)pyrimidin-4-yl)morpholine]	> 5 µM	0.01 to 1 µM
FC(F)c1ccc2ncc(-c3cc(N4CCCC(Cn5ccnn5)C4)ncn3)n2n1 (stereo not shown) [II-327, 3-(6-(3-((1H-1,2,3-Triazol-1-yl)methyl)piperidin-1-yl)pyrimidin-4-yl)-6-(difluoromethyl)imidazo[1,2-b]pyridazine]	> 5 µM	0.01 to 1 µM
Cc1ccc2ncc(-c3cc(N4CCO[C@H](CNS(C)(=O)=O)C4)ncn3)n2n1 [II-328, (S)—N-((4-(6-(6-Methylimidazo[1,2-b]pyridazin-3-yl)pyrimidin-4-yl)morpholin-2-yl)methyl)methanesulfonamide]	0.5 to 5 µM	0.01 to 1 µM
CC1C(CNS(C)(=O)=O)CC(F)(F)CN1c1cc(-c2cnc3ccc(C(F)F)nn23)ncn1 (stereo not shown) [II-329, N-((1-(6-(6-(Difluoromethyl)imidazo[1,2-b]pyridazin-3-yl)pyrimidin-4-yl)-5,5-difluoro-2-methylpiperidin-3-yl)methyl)methanesulfonamide]	< 0.5 µM	< 0.01 µM
CS(=O)(=O)NC[C@H]1CN(c2cc(-c3cnc4ccc(C(F)F)nn34)ncn2)C[C@H](C(F)(F)F)O1 [II-330, N-(((2R,6R)-4-(6-(6-(Difluoromethyl)imidazo[1,2-b]pyridazin-3-yl)pyrimidin-4-yl)-6-(trifluoromethyl)morpholin-2-yl)methyl)methanesulfonamide]	0.5 to 5 µM	0.01 to 1 µM
CS(=O)(=O)NC[C@@H]1CN(c2cc(-c3cnc4ccc(C(F)F)nn34)ncn2)C[C@H](C(F)(F)F)O1 [II-331, N-(((2S,6R)-4-(6-(6-(Difluoromethyl)imidazo[1,2-b]pyridazin-3-yl)pyrimidin-4-yl)-6-(trifluoromethyl)morpholin-2-yl)methyl)methanesulfonamide]	< 0.5 µM	< 0.01 µM
NS(=O)(=O)N1CC2OCCN(c3cc(-c4cnc5ccc(C(F)F)nn45)ncn3)C2C1 (stereo not shown) [II-332, 4-(6-(6-(Difluoromethyl)imidazo[1,2-b]pyridazin-3-yl)pyrimidin-4-yl)hexahydropyrrolo[3,4-b][1,4]oxazine-6(2H)-sulfonamide]	> 5 µM	0.01 to 1 µM
NS(=O)(=O)N1CC2(CCCN(c3cc(-c4cnc5ccc(C(F)F)nn45)ncn3)C2)C1 [II-333, 6-(6-(6-(Difluoromethyl)imidazo[1,2-b]pyridazin-3-yl)pyrimidin-4-yl)-2,6-diazaspiro[3.5]nonane-2-sulfonamide]	0.5 to 5 µM	0.01 to 1 µM
NS(=O)(=O)N1CC2(CN(c3cc(-c4cnc5ccc(C(F)F)nn45)ncn3)CCO2)C1 [II-334, 8-(6-(6-(Difluoromethyl)imidazo[1,2-b]pyridazin-3-yl)pyrimidin-4-yl)-5-oxa-2,8-diazaspiro[3.5]nonane-2-sulfonamide]	0.5 to 5 µM	0.01 to 1 µM
NS(=O)(=O)N1CC2CCCN(c3cc(-c4cnc5ccc(C(F)F)nn45)ncn3)C2C1 (stereo not shown) [II-335, 1-(6-(6-(Difluoromethyl)imidazo[1,2-b]pyridazin-3-yl)pyrimidin-4-yl)octahydro-6H-pyrrolo[3,4-b]pyridine-6-sulfonamide]	> 5 µM	0.01 to 1 µM
CC1NCCN(c2cc(-c3cnc4ccc(C(F)F)nn34)ncn2)C1CNS(C)(=O)=O (stereo not shown) [II-336, N-((1-(6-(6-(Difluoromethyl)imidazo[1,2-b]pyridazin-3-yl)pyrimidin-4-yl)-3-methylpiperazin-2-yl)methyl)methanesulfonamide]	> 5 µM	> 1 µM
CC(O)c1ccc2ncc(-c3cc(N4C[C@@H](CNS(C)(=O)=O)C(F)(F)[C@@H](C)C4)ncn3)n2n1 (stereo partly drawn) [II-337, N-(((3S,5S)-4,4-Difluoro-1-(6-(6-(1-hydroxyethyl)imidazo[1,2-b]pyridazin-3-yl)pyrimidin-4-yl)-5-methylpiperidin-3-yl)methyl)methanesulfonamide]	> 5 µM	0.01 to 1 µM
CC(O)c1ccc2ncc(-c3cc(N4CCO[C@H](CNS(C)(=O)=O)C4)ncn3)n2n1 (stereo partly drawn) [II-338, N-(((2S)-4-(6-(6-(1-Hydroxyethyl)imidazo[1,2-b]pyridazin-3-yl)pyrimidin-4-yl)morpholin-2-yl)methyl)methanesulfonamide trifluoroacetate]	> 5 µM	0.01 to 1 µM
FC(F)c1ccc2ncc(-c3cc(N4CCCC(Cn5cncn5)C4)ncn3)n2n1 (stereo not shown) [II-339, 3-(6-(3-((1H-1,2,4-Triazol-1-yl)methyl)piperidin-1-yl)pyrimidin-4-yl)-6-(difluoromethyl)imidazo[1,2-b]pyridazine]	0.5 to 5 µM	0.01 to 1 µM
CCN1CCN(c2cc(-c3cnc4ccc(C(F)F)nn34)ncn2)C(C)C1CNS(C)(=O)=O (stereo not shown) [II-340, N-((4-(6-(6-(Difluoromethyl)imidazo[1,2-b]pyridazin-3-yl)pyrimidin-4-yl)-1-ethyl-3-methylpiperazin-2-yl)methyl)methanesulfonamide]	< 0.5 µM	0.01 to 1 µM
CC1C(CO)OCCN1c1cc(-c2cnc3ccc(C(F)F)nn23)ncn1 (stereo not shown) [II-341, (4-(6-(6-(Difluoromethyl)imidazo[1,2-b]pyridazin-3-yl)pyrimidin-4-yl)-3-methylmorpholin-2-yl)methanol]	> 5 µM	0.01 to 1 µM
CC1C(CO)OCCN1c1cc(-c2cnc3ccc(C(F)F)nn23)ncn1 (stereo not shown) [II-342, (4-(6-(6-(Difluoromethyl)imidazo[1,2-b]pyridazin-3-yl)pyrimidin-4-yl)-3-methylmorpholin-2-yl)methanol]	0.5 to 5 µM	0.01 to 1 µM
OCC1CN(c2cc(-c3cnc4ccc(C(F)F)nn34)ncn2)CC2(COC2)O1 (stereo not shown) [II-343, (8-(6-(6-(Difluoromethyl)imidazo[1,2-b]pyridazin-3-yl)pyrimidin-4-yl)-2,5-dioxa-8-azaspiro[3.5]nonan-6-yl)methanol]	> 5 µM	0.01 to 1 µM
NS(=O)(=O)N1CCC2CCN(c3cc(-c4cnc5ccc(C(F)F)nn45)ncn3)C2C1 (stereo not shown) [II-344, 1-(6-(6-(Difluoromethyl)imidazo[1,2-b]pyridazin-3-yl)pyrimidin-4-yl)octahydro-6H-pyrrolo[2,3-c]pyridine-6-sulfonamide]	< 0.5 µM	< 0.01 µM
